# Experimental data as given in patent US10167262B2, “Herbicidal substituted 3-arylpyrazoles” (FMC CORPORATION, priority 2014, dated 2019).
# Tested on: wheat (Triticum aestivum)
# Assay: Test A pre-/postemergence greenhouse herbicide test, visual injury rating 0-100
# Type: in vivo
# Conditions: Postemergence, 125 g ai/ha
# Summary of the method: (§1)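 Planting in a loam and sand mixture preceded a directed preemergence soil spray; postemergence spray was applied concurrently to one- to two-leaf plants. After roughly 10 days under glass, injury is scored visually against untreated controls, 0–100.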
row,SMILES,"Plant response rating (0 to 100 scale), Wheat"
1,C#CCn1cc(C(=O)c2cccnc2)c(-c2cc(Cl)cc(Cl)c2)n1 [Compound 9],0

# Same assay, conditions: Postemergence, 500 g ai/ha
row,SMILES,"Plant response rating (0 to 100 scale), Wheat"
1,C#CCn1cc(C(=O)c2cccnc2)c(-c2cc(Cl)cc(Cl)c2)n1 [Compound 9],0

# Same assay, conditions: Preemergence, 125 g ai/ha
row,SMILES,"Wheat plant response rating (0 = no effect, 100 = complete control)"
1,C#CCn1cc(C(=O)c2cccnc2)c(-c2cc(Cl)cc(Cl)c2)n1 [Compound 9],0

# Same assay, conditions: Preemergence, 500 g ai/ha
row,SMILES,"Plant response rating (0 to 100 scale), Wheat"
1,C#CCn1cc(C(=O)c2cccnc2)c(-c2cc(Cl)cc(Cl)c2)n1 [Compound 9],0

# Tested on: morningglory (Ipomoea spp.)
# Assay: as above
# Type: in vivo
# Conditions: Postemergence, 125 g ai/ha
# Summary of the method: as §1
row,SMILES,"Plant response rating (0 to 100 scale), Morningglory"
1,C#CCn1cc(C(=O)c2cccnc2)c(-c2cc(Cl)cc(Cl)c2)n1 [Compound 9],0

# Same assay, conditions: Postemergence, 500 g ai/ha
row,SMILES,"Plant response rating (0 to 100 scale), Morningglory"
1,C#CCn1cc(C(=O)c2cccnc2)c(-c2cc(Cl)cc(Cl)c2)n1 [Compound 9],0

# Same assay, conditions: Preemergence, 125 g ai/ha
row,SMILES,"Morningglory plant response rating (0 = no effect, 100 = complete control)"
1,C#CCn1cc(C(=O)c2cccnc2)c(-c2cc(Cl)cc(Cl)c2)n1 [Compound 9],0

# Same assay, conditions: Preemergence, 500 g ai/ha
row,SMILES,"Plant response rating (0 to 100 scale), Morningglory"
1,C#CCn1cc(C(=O)c2cccnc2)c(-c2cc(Cl)cc(Cl)c2)n1 [Compound 9],0

# Tested on: velvetleaf (Abutilon theophrasti)
# Assay: as above
# Type: in vivo
# Conditions: Postemergence, 125 g ai/ha
# Summary of the method: as §1
row,SMILES,"Plant response rating (0 to 100 scale), Velvetleaf"
1,C#CCn1cc(C(=O)c2cccnc2)c(-c2cc(Cl)cc(Cl)c2)n1 [Compound 9],50

# Same assay, conditions: Postemergence, 500 g ai/ha
row,SMILES,"Plant response rating (0 to 100 scale), Velvetleaf"
1,C#CCn1cc(C(=O)c2cccnc2)c(-c2cc(Cl)cc(Cl)c2)n1 [Compound 9],60

# Same assay, conditions: Preemergence, 125 g ai/ha
row,SMILES,"Velvetleaf plant response rating (0 = no effect, 100 = complete control)"
1,C#CCn1cc(C(=O)c2cccnc2)c(-c2cc(Cl)cc(Cl)c2)n1 [Compound 9],0

# Same assay, conditions: Preemergence, 500 g ai/ha
row,SMILES,"Plant response rating (0 to 100 scale), Velvetleaf"
1,C#CCn1cc(C(=O)c2cccnc2)c(-c2cc(Cl)cc(Cl)c2)n1 [Compound 9],80

# Tested on: corn (Zea mays)
# Assay: as above
# Type: in vivo
# Conditions: Preemergence, 125 g ai/ha
# Summary of the method: as §1
row,SMILES,"Corn plant response rating (0 = no effect, 100 = complete control)"
1,C#CCn1cc(C(=O)c2cccnc2)c(-c2cc(Cl)cc(Cl)c2)n1 [Compound 9],0

# Same assay, conditions: Preemergence, 500 g ai/ha
row,SMILES,"Plant response rating (0 to 100 scale), Corn"
1,C#CCn1cc(C(=O)c2cccnc2)c(-c2cc(Cl)cc(Cl)c2)n1 [Compound 9],0

# Tested on: barnyardgrass (Echinochloa crus-galli)
# Assay: as above
# Type: in vivo
# Conditions: Postemergence, 125 g ai/ha
# Summary of the method: as §1
row,SMILES,"Plant response rating (0 to 100 scale), Barnyardgrass"
1,C#CCn1cc(C(=O)c2cccnc2)c(-c2cc(Cl)cc(Cl)c2)n1 [Compound 9],0

# Same assay, conditions: Postemergence, 500 g ai/ha
row,SMILES,"Plant response rating (0 to 100 scale), Barnyardgrass"
1,C#CCn1cc(C(=O)c2cccnc2)c(-c2cc(Cl)cc(Cl)c2)n1 [Compound 9],10

# Same assay, conditions: Preemergence, 125 g ai/ha
row,SMILES,"Barnyardgrass plant response rating (0 = no effect, 100 = complete control)"
1,C#CCn1cc(C(=O)c2cccnc2)c(-c2cc(Cl)cc(Cl)c2)n1 [Compound 9],0

# Same assay, conditions: Preemergence, 500 g ai/ha
row,SMILES,"Plant response rating (0 to 100 scale), Barnyardgrass"
1,C#CCn1cc(C(=O)c2cccnc2)c(-c2cc(Cl)cc(Cl)c2)n1 [Compound 9],0

# Tested on: pigweed (Amaranthus retroflexus)
# Assay: as above
# Type: in vivo
# Conditions: Postemergence, 125 g ai/ha
# Summary of the method: as §1
row,SMILES,"Plant response rating (0 to 100 scale), Pigweed"
1,C#CCn1cc(C(=O)c2cccnc2)c(-c2cc(Cl)cc(Cl)c2)n1 [Compound 9],60

# Same assay, conditions: Postemergence, 500 g ai/ha
row,SMILES,"Plant response rating (0 to 100 scale), Pigweed"
1,C#CCn1cc(C(=O)c2cccnc2)c(-c2cc(Cl)cc(Cl)c2)n1 [Compound 9],80

# Same assay, conditions: Preemergence, 125 g ai/ha
row,SMILES,"Pigweed plant response rating (0 = no effect, 100 = complete control)"
1,C#CCn1cc(C(=O)c2cccnc2)c(-c2cc(Cl)cc(Cl)c2)n1 [Compound 9],60

# Same assay, conditions: Preemergence, 500 g ai/ha
row,SMILES,"Plant response rating (0 to 100 scale), Pigweed"
1,C#CCn1cc(C(=O)c2cccnc2)c(-c2cc(Cl)cc(Cl)c2)n1 [Compound 9],90

# Tested on: giant foxtail (Setaria faberii)
# Assay: as above
# Type: in vivo
# Conditions: Postemergence, 125 g ai/ha
# Summary of the method: as §1
row,SMILES,"Plant response rating (0 to 100 scale), Foxtail, Giant"
1,C#CCn1cc(C(=O)c2cccnc2)c(-c2cc(Cl)cc(Cl)c2)n1 [Compound 9],0

# Same assay, conditions: Postemergence, 500 g ai/ha
row,SMILES,"Plant response rating (0 to 100 scale), Foxtail, Giant"
1,C#CCn1cc(C(=O)c2cccnc2)c(-c2cc(Cl)cc(Cl)c2)n1 [Compound 9],0

# Same assay, conditions: Preemergence, 125 g ai/ha
row,SMILES,"Foxtail, Giant plant response rating (0 = no effect, 100 = complete control)"
1,C#CCn1cc(C(=O)c2cccnc2)c(-c2cc(Cl)cc(Cl)c2)n1 [Compound 9],0

# Same assay, conditions: Preemergence, 500 g ai/ha
row,SMILES,"Plant response rating (0 to 100 scale), Foxtail, Giant"
1,C#CCn1cc(C(=O)c2cccnc2)c(-c2cc(Cl)cc(Cl)c2)n1 [Compound 9],20

# Tested on: large (Lg) crabgrass (Digitaria sanguinalis)
# Assay: as above
# Type: in vivo
# Conditions: Postemergence, 125 g ai/ha
# Summary of the method: as §1
row,SMILES,"Plant response rating (0 to 100 scale), Crabgrass, Large"
1,C#CCn1cc(C(=O)c2cccnc2)c(-c2cc(Cl)cc(Cl)c2)n1 [Compound 9],0

# Same assay, conditions: Postemergence, 500 g ai/ha
row,SMILES,"Plant response rating (0 to 100 scale), Crabgrass, Large"
1,C#CCn1cc(C(=O)c2cccnc2)c(-c2cc(Cl)cc(Cl)c2)n1 [Compound 9],0

# Same assay, conditions: Preemergence, 125 g ai/ha
row,SMILES,"Crabgrass, Large plant response rating (0 = no effect, 100 = complete control)"
1,C#CCn1cc(C(=O)c2cccnc2)c(-c2cc(Cl)cc(Cl)c2)n1 [Compound 9],0

# Same assay, conditions: Preemergence, 500 g ai/ha
row,SMILES,"Plant response rating (0 to 100 scale), Crabgrass, Large"
1,C#CCn1cc(C(=O)c2cccnc2)c(-c2cc(Cl)cc(Cl)c2)n1 [Compound 9],10

# Tested on: rice (Oryza sativa)
# Assay: Test B flooded paddy test, plant response rating 0-100
# Type: in vivo
# Conditions: Flood, 250 g ai/ha; scale 0 to 100 (0 no effect, 100 complete control); 13 to 15 days
# From the text: (§2) At time of treatment, test pots were flooded to 3 cm above the soil surface, treated by application of test compounds directly to the paddy water, and then maintained at that water depth for the duration of the test. Treated plants and controls were maintained in a greenhouse for 13 to 15 days, after which time all species were compared to controls and visually evaluated. […] A dash (-) response means no test result.
row,SMILES,"Plant response rating, Rice"
1,C#CCn1cc(C(=O)c2cccnc2)c(-c2cc(Cl)cc(Cl)c2)n1 [Compound 9],0

# Tested on: barnyardgrass (Echinochloa crus-galli)
# Assay: as above
# Type: in vivo
# Conditions: Flood, 250 g ai/ha; scale 0 to 100 (0 no effect, 100 complete control); 13 to 15 days
# From the text: as §2
row,SMILES,"Plant response rating, Barnyardgrass"
1,C#CCn1cc(C(=O)c2cccnc2)c(-c2cc(Cl)cc(Cl)c2)n1 [Compound 9],0

# Tested on: sedge, umbrella (small-flower umbrella sedge, Cyperus difformis)
# Assay: as above
# Type: in vivo
# Conditions: Flood, 250 g ai/ha; scale 0 to 100 (0 no effect, 100 complete control); 13 to 15 days
# From the text: as §2
row,SMILES,"Plant response rating, Sedge, Umbrella"
1,C#CCn1cc(C(=O)c2cccnc2)c(-c2cc(Cl)cc(Cl)c2)n1 [Compound 9],0

# Tested on: ducksalad (Heteranthera limosa)
# Assay: as above
# Type: in vivo
# Conditions: Flood, 250 g ai/ha; scale 0 to 100 (0 no effect, 100 complete control); 13 to 15 days
# From the text: as §2
row,SMILES,"Plant response rating, Ducksalad"
1,C#CCn1cc(C(=O)c2cccnc2)c(-c2cc(Cl)cc(Cl)c2)n1 [Compound 9],0
